# Several values for one entry are separate records, joined by “and”; a condition that tells them apart may be missing. Identical values can stand only once. Like-named read-outs stand apart in the source and are kept apart here.
# Key:
# [1] = well-known value; cited from earlier work
# [2] = tested on: hypogonadism in men; experiment: Study of testosterone cypionate injections every 7 days (with anastrozole) in men, followed by blood work until stabilization; format: in vivo, human; conditions: for TT at week 5 / TT once stable: average total testosterone; for increase in PSA from start of treatment to stabilization / PSA level at stabilization / Hemoglobin at 5 weeks / Hemoglobin at stabilization: average; for average decrease in A1c: TC and anastrozole dosing
# From the text: Patient hemoglobin and total testosterone (TT) levels were used in this Study to determine when a patient becomes “stable” on treatment. The terms “stable”, “stability”, “stabilized” and “stabilization” are defined in this Study as “the point at which a patient's symptoms have resolved, polycythemia has stopped, and TC dosage has remained consistent for at least 3 months.” Polycythemia associated with testosterone replacement therapy (TRT) has commonly been controlled through frequent patient blood donation. […] Several TT “normal” ranges can be found in the literature. For example, the Endocrine Society identifies the normal range for TT levels in males to be 264-916 ng/dL (1,17). However, LabCorp Diagnostics has used the previously accepted “normal” range of 348-1197 ng/dL until 2017 and Quest Diagnostics uses a reference range of 250-1110 ng/dL.
# Patients' responses to TC injections administered every 7 days were tracked and the resulting effects of TC dosing on cholesterol, A1c, and PSA levels were documented once stable TT levels were reached.
# Subjects: Two cohorts were studied. The two cohorts studied were males that had previously been on TRT and males who had never been on any form of TRT. Blood work was collected from all patients at their initial visit, after 1 month of treatment, after 3 months of treatment, and then at 6 months, 9 months, 12 months, etc. as patients continued treatment. Data was collected for each cohort including the length of time that it took to stabilize on treatment and the average dosage injected weekly once patients had reached stabilization.
# However, in this Study TC injections were administered every 7 days, and blood samples were collected at 7 days post-TC injection and after at least 4 consecutive weeks of injections. […] Collecting blood samples at the 4-week mark provides more consistent, accurate, and useful information regarding the TT blood level than if the samples are collected earlier.
# Blood samples were then sent to an outsourced laboratory, Lab Tech Diagnostics. Samples were drawn at the patient's initial visit, after their first 4 consecutive TC injections, after 3 months of treatment, and at 3-month intervals thereafter. Testosterone, estradiol, and hemoglobin levels were tracked with every blood sample. PSA and cholesterol levels were checked every 3 months. A1c levels were checked with initial blood work, and then once per year if A1c was within normal limits (WNL) or every 3 months if A1c was >5.6.
# Given, the primary goal was to determine a stabilization point such that the patient achieved maximum benefit with minimal side effects (e.g., elimination of polycythemia) from the treatment, the challenge was to identify a TC dose at which the patient's hemoglobin stopped increasing. […] Patients were advised to start 81 mg aspirin daily if their hemoglobin started increasing after starting treatment. […] Dosage adjustments of TC were made in 20 mg (0.1 ml) increments. Assessment of new dosages were not made until after four consecutive injections at the new dose and at 7 days after their last injection. After analysis of data, there were notable similarities in the Total Testosterone, estradiol, and hemoglobin levels once patients reached stabilization on treatment. There were also differences seen between patients that had been on TRT in the past through other clinics and those that started treatment with our clinic. Patients who had previously been on TRT took longer to stabilize on therapy than those who had never been on TRT.
# [3] = in humans; cited from earlier work
# [4] = patients never on TRT, starting TT level 347.77 ng/dl
# [5] = patients previously on TRT, starting TT level 479.83 ng/dl
# [6] = patients never on TRT, initial 15.06 g/dl
# [7] = patients previously on TRT, initial 15.78 g/dl
structure (smiles),measurement,setting,value
"C[C@]12CC[C@H]3[C@@H](CCC4=CC(=O)CC[C@@]43C)[C@@H]1CC[C@@H]2OC(=O)CCC1CCCC1 [TC, testosterone cypionate]",half-life,[1],7 to 8 days
same,symptoms at low 7-day testosterone level,[2]; 7-day testosterone level <600,almost all patients were still experiencing symptoms of testicular hypofunction
same,patients who developed prostate cancer,[2]; 60 patients in the study,No patients
same,common increase in cholesterol levels seen with excessive TC dosing,[2]; TC and anastrozole dosing as described in the study,Elimination
same,side effects seen at higher TT levels,[2]; TT levels >1050,"acne, aggression, erectile dysfunction, difficulty losing weight, extremely elevated estradiol levels, hair loss, and increased body hair"
same,TT level at which patients stabilized (range),"[2]; all patients in the study, drawn 7 days after injection",605 to 1051 ng/dL
same,TT at week 5,[2]; [4],705.43 ng/dL
same,TT once stable,[2]; [4],794.53 ng/dL
same,TT at week 5,[2]; [5],805.9 ng/dL and 805.90 ng/dL
same,TT once stable,[2]; [5],780.1 ng/dL and 780.10 ng/dL
same,increase in PSA from start of treatment to stabilization,[2]; patients never on TRT,26.89%
same,PSA level at stabilization,"[2]; patients never on TRT, initial 0.859 ng/ml",1.090 ng/mL
same,Hemoglobin at 5 weeks,[2]; [6],15.33 g/dL
same,Hemoglobin at stabilization,[2]; [6],15.79 g/dL
same,increase in PSA from start of treatment to stabilization,[2]; patients previously on TRT,14.36%
same,PSA level at stabilization,"[2]; patients previously on TRT, initial 1.017 ng/ml",1.163 ng/mL
same,Hemoglobin at 5 weeks,[2]; [7],16.22 g/dL
same,Hemoglobin at stabilization,[2]; [7],15.70 g/dL
same,side effects when not consistent with both TC and anastrozole dosing,[2]; inconsistent timing and dosage,"frequently experienced acne, mood swings, and elevating hemoglobin"
same,polycythemia (need to donate blood),[2]; once a patient reached stability on treatment,eliminated
same,chief complaints/symptoms (Table 1) as reported by the patient,[2]; once stable on treatment,well-controlled
same,average decrease in A1c,[2]; patients not previously on TRT,0.39%
same,average time longer to stabilize,[2]; patients previously on TRT in any form versus patients never on TRT,9.7 months
same,average decrease in A1c,[2]; patients previously on TRT,0.14%
same,TT level at stabilization (range),[2]; patients never on TRT,641 to 1051 ng/dL
same,TT level at stabilization (range),[2]; patients previously on TRT,605 to 1020 ng/dL
CC(C)(C#N)c1cc(Cn2cncn2)cc(C(C)(C)C#N)c1 [anastrozole],half-life,[3],30 to 60 h
same,side effects when anastrozole was started at the beginning of treatment,[2]; in vivo,frequently experienced hot flashes or joint pains
CC(=O)Oc1ccccc1C(=O)O [aspirin],effect of adding aspirin on hemoglobin levels,"[2]; 81 mg daily, patients on TC whose hemoglobin started increasing",helped to either decrease hemoglobin levels or slow the rate of increase of hemoglobin levels

# Source: patent publication US20250073245A1, “COMPOSITION AND METHOD OF TREATING HYPOGONADISM IN MEN” (priority 2023, published 2025)
